Results reported in ChEMBL document CHEMBL4765295, “Synthesis, pharmacological profile and 2D-QSAR studies of curcumin-amino acid conjugates as potential drug candidates” (Eur J Med Chem, 2020).
Where “and” joins values, the source holds several entries; their conditions need not be identical. Equal values may be shown once.

Assays:
Rattus norvegicus [1] = assay: Anti-inflammatory activity in Wistar rat assessed as inhibition of carrageenan-induced paw edema at 10 mg/kg, ip pretreated for 1 hr followed by carrageenan challenge and measured after 4 hr relative to indomethacin; format: functional; conditions: time 5 hrs
Rattus norvegicus [2] = assay: Antiinflammatory activity in Wistar rat model of carrageenan-induced paw edema assessed as reduction in thickness of paw edema at 10 mg/kg, ip pretreated for 1 hr followed by carrageenan challenge and measured after 3 hrs (reference value: 1.79 +/-0.07 mm); format: functional; conditions: time 4 hrs
Pseudomonas aeruginosa = assay: Antibacterial activity against Pseudomonas aeruginosa ATCC 27853 incubated for 18 hrs by agar dilution assay; format: functional
Candida albicans = assay: Antifungal activity against Candida albicans incubated for 18 to 24 hrs by CLSI method; format: functional; conditions: time 18-24 hrs
MCF7 = assay: Antiproliferative activity against human MCF7 cells assessed as inhibition of cell growth after 72 hrs by MTT assay; format: functional, cell-based; conditions: MCF7, 72 h
Splenocyte [3] = assay: Immunomodulatory activity in Swiss albino mouse splenocytes assessed as cell viability at 10 uM by measuring stimulation index incubated for 72 hrs in presence of mitogenic stimulus phytohaemagglutinin by MTT assay (reference value: 1.00 +/- 0.24); format: functional
Rattus norvegicus [4] = assay: Antiinflammatory activity in Wistar rat model of carrageenan-induced paw edema assessed as reduction in thickness of paw edema at 10 mg/kg, ip pretreated for 1 hr followed by carrageenan challenge and measured after 2 hrs (reference value: 2.06 +/-0.09 mm); format: functional; conditions: time 3 hrs
Staphylococcus aureus = assay: Antibacterial activity against Staphylococcus aureus ATCC 25923 incubated for 18 hrs by agar dilution method; format: functional
Rattus norvegicus [5] = assay: Anti-inflammatory activity in Wistar rat assessed as inhibition of carrageenan-induced paw edema at 10 mg/kg, ip pretreated for 1 hr followed by carrageenan challenge and measured after 24 hr relative to control (reference value: 0.00 +/-0.3 %); format: functional; conditions: time 25 hrs
Rattus norvegicus [6] = assay: Antiinflammatory activity in Wistar rat model of carrageenan-induced paw edema assessed as reduction in thickness of paw edema at 10 mg/kg, ip pretreated for 1 hr followed by carrageenan challenge and measured after 1 hr (reference value: 2.41 +/-0.05 mm); format: functional; conditions: time 1 hr after carrageenan
Salmonella typhimurium = assay: Antibacterial activity against Salmonella typhimurium ATCC 19430 incubated for 18 hrs by agar dilution assay; format: functional, Salmonella enterica subsp. enterica serovar Typhimurium; conditions: Salmonella enterica
Rattus norvegicus [7] = assay: Anti-inflammatory activity in Wistar rat assessed as inhibition of carrageenan-induced paw edema at 10 mg/kg, ip pretreated for 1 hr followed by carrageenan challenge and measured after 1 hr relative to control (reference value: 0.00 +/-0.02 %); format: functional; conditions: time 2 hrs
Rattus norvegicus [8] = assay: Anti-inflammatory activity in Wistar rat assessed as inhibition of carrageenan-induced paw edema at 10 mg/kg, ip pretreated for 1 hr followed by carrageenan challenge and measured after 2 hr relative to control (reference value: 0.00 +/-0.03 %); format: functional; conditions: time 3 hrs
Rattus norvegicus [9] = assay: Antiinflammatory activity in Wistar rat model of carrageenan-induced paw edema assessed as reduction in thickness of paw edema at 10 mg/kg, ip pretreated for 1 hr followed by carrageenan challenge and measured after 4 hrs (reference value: 1.40 +/-0.10 mm); format: functional; conditions: time 5 hrs
PC-3 = assay: Antiproliferative activity against human PC3 cells assessed as inhibition of cell growth after 72 hrs by MTT assay; format: functional, cell-based; conditions: PC-3, 72 h
Streptococcus pyogenes = assay: Antibacterial activity against Streptococcus pyogenes ATCC 19615 incubated for 18 hrs by agar dilution method; format: functional
Peritoneal macrophage [10] = assay: Antiinflammatory activity in […] mouse Peritoneal macrophages assessed as reduction in LPS-induced NO production by measuring reduction in stimulation index at 10 uM preincubated for 1 hr followed by LPS stimulation measured after 24 hrs by Griess method (reference value: 27.31 +/- 2.56 uM); format: functional; conditions: time 25 hrs
A549 = assay: Antiproliferative activity against human A549 cells assessed as inhibition of cell growth after 72 hrs by MTT assay; format: functional, cell-based; conditions: A549, 72 h
Peritoneal macrophage [11] = assay: Antiinflammatory activity in […] mouse Peritoneal macrophages assessed as inhibition of LPS-induced NO production at 10 uM preincubated for 1 hr followed by LPS stimulation measured after 24 hrs by Griess method relative to control (reference value: 0.0 %); format: functional; design: scale not given: the % may be the effect or the level left; conditions: time 25 hrs
Splenocyte [12] = assay: Immunomodulatory activity in Swiss albino mouse splenocytes assessed as cell viability at 10 uM by measuring inhibition of stimulation index incubated for 72 hrs in presence of mitogenic stimulus phytohaemagglutinin by MTT assay relative to indomethacin; format: functional; conditions: read-out: Activity
Rattus norvegicus [13] = assay: Antiinflammatory activity in Wistar rat model of carrageenan-induced paw edema assessed as reduction in thickness of paw edema at 10 mg/kg, ip pretreated for 1 hr followed by carrageenan challenge and measured after 24 hrs (reference value: 0.83 +/-0.08 mm); format: functional; conditions: time 25 hrs
Rattus norvegicus [14] = assay: Anti-inflammatory activity in Wistar rat assessed as inhibition of carrageenan-induced paw edema at 10 mg/kg, ip pretreated for 1 hr followed by carrageenan challenge and measured after 3 hr relative to control (reference value: 0.00 +/-0.1 %); format: functional; conditions: time 4 hrs
Rattus norvegicus [15] = assay: Anti-inflammatory activity in Wistar rat assessed as inhibition of carrageenan-induced paw edema at 10 mg/kg, ip pretreated for 1 hr followed by carrageenan challenge and measured after 4 hr relative to control (reference value: 0.00 +/-0.4 %); format: functional; conditions: time 5 hrs
Mus musculus [16] = assay: Analgesic activity in albino mouse assessed reduction in acetic acid-induced abdominal writhing by measuring writing reflex at 10 mg/kg, ip pretreated for 1 hr followed by acetic acid challenge and measured starting 5 mins post acetic acid challenge for 10 mins (reference value: 42.4 +/- 1.02); format: functional; conditions: time 75 min, 1.25 h
Mus musculus [17] = assay: Analgesic activity in albino mouse assessed as protection at 10 mg/kg, ip measured after 90 mins by hot plate test (reference value: 0 %); format: functional; conditions: 1.5 h
Mus musculus [18] = assay: Analgesic activity in albino mouse assessed as protection at 10 mg/kg, ip measured after 60 mins by hot plate test (reference value: 0 %); format: functional; conditions: 1 h
Mus musculus [19] = assay: Analgesic activity in albino mouse assessed protection against acetic acid-induced abdominal writhing at 10 mg/kg, ip pretreated for 1 hr followed by acetic acid challenge and measured starting 5 mins post acetic acid challenge for 10 mins relative to indomethacin; format: functional; conditions: time 75 min, 1.25 h
[20] = Toxicity in albino mouse assessed as induction of toxic symptoms at 50 to 100 mg/kg, ip measured after 24 hrs; format: organism-based; conditions: in vivo, dose 50-100 mg/kg
Mus musculus [21] = assay: Analgesic activity in albino mouse assessed as protection at 10 mg/kg, ip measured after 120 mins by hot plate test relative to indomethacin; format: functional; conditions: 2 h
Mus musculus [22] = assay: Analgesic activity in albino mouse assessed as forepaw licking/jumping latency time at 10 mg/kg, ip measured after 90 mins by hot plate test (reference value: 2.72 +/- 0.01 sec); format: functional; conditions: 1.5 h
Mus musculus [23] = assay: Analgesic activity in albino mouse assessed as forepaw licking/jumping latency time at 10 mg/kg, ip measured after 30 mins by hot plate test (reference value: 5.02 +/- 0.09 sec); format: functional; conditions: 0.5 h
Mus musculus [24] = assay: Analgesic activity in albino mouse assessed protection against acetic acid-induced abdominal writhing at 10 mg/kg, ip pretreated for 1 hr followed by acetic acid challenge and measured starting 5 mins post acetic acid challenge for 10 mins relative to control (reference value: 0 %); format: functional; conditions: time 75 min, 1.25 h
Mus musculus [25] = assay: Analgesic activity in albino mouse assessed as protection at 10 mg/kg, ip measured after 30 mins by hot plate test (reference value: 0 %); format: functional; conditions: 0.5 h
[26] = Ulcerogenic activity in fasted albino mouse assessed as average number of ulcers in gastric mucosa at 10 mg/kg, po for 3 days (reference value: 0); format: toxicity, organism-based; conditions: in vivo, 72 h, time 3 day
Mus musculus [27] = assay: Analgesic activity in albino mouse assessed as forepaw licking/jumping latency time at 10 mg/kg, ip measured after 60 mins by hot plate test (reference value: 3.42 +/- 0.03 sec); format: functional; conditions: 1 h
[28] = Ulcerogenic activity in fasted albino mouse assessed as average severity of ulcers in gastric mucosa at 10 mg/kg, po for 3 days (reference value: 0); format: toxicity, organism-based; conditions: in vivo, 72 h, time 3 day
[29] = Ulcerogenic activity in fasted albino mouse assessed as ulcer index in gastric mucosa at 10 mg/kg, po for 3 days (reference value: 0); format: toxicity, organism-based; conditions: in vivo, 72 h, time 3 day
Mus musculus [30] = assay: Analgesic activity in albino mouse assessed as forepaw licking/jumping latency time at 10 mg/kg, ip measured after 120 mins by hot plate test (reference value: 2.62 +/- 0.06 sec); format: functional; conditions: 2 h
[31] = Ulcerogenic activity in fasted albino mouse assessed as incidence of gastric ulceration at 10 mg/kg, po for 3 days (reference value: 0 %); format: toxicity, organism-based; conditions: in vivo, 72 h, time 3 day
Mus musculus [32] = assay: Analgesic activity in albino mouse assessed as protection at 10 mg/kg, ip measured after 120 mins by hot plate test (reference value: 0 %); format: functional; conditions: 2 h

SMILES	inhibition in vivo at 10 mg/kg (Rattus norvegicus [1]) [%]	Activity (Rattus norvegicus [2]) [mm]	MIC (Pseudomonas aeruginosa)	MIC (Candida albicans)	IC50 (MCF7) [µM]	Activity_index (Splenocyte [3])	Activity (Rattus norvegicus [4]) [mm]	MIC (Staphylococcus aureus)	inhibition in vivo at 10 mg/kg (Rattus norvegicus [5]) [%]	Activity (Rattus norvegicus [6]) [mm]	MIC (Salmonella typhimurium)	inhibition in vivo at 10 mg/kg (Rattus norvegicus [7]) [%]	inhibition in vivo at 10 mg/kg (Rattus norvegicus [8]) [%]	Activity (Rattus norvegicus [9]) [mm]	IC50 (PC-3) [µM]	MIC (Streptococcus pyogenes)	Activity (Peritoneal macrophage [10]) [µM]	IC50 (A549) [µM]	Activity (Peritoneal macrophage [11]) [%]	viability at 10 µM (Splenocyte [12]) [%]	other results
COc1cc(/C=C/C(=O)/C=C(O)/C=C/c2ccc(OC(=O)[C@@H](N)CCC(N)=O)c(OC)c2)ccc1OC(=O)[C@@H](N)CCC(N)=O.Cl.Cl	48	1.02	0.5 µg/mL and 0.717 µM	0.125 µg/mL and 0.179 µM	9.15	2.22	1.14	0.25 µg/mL and 0.358 µM	31	1.29	0.125 µg/mL and 0.179 µM	46	45	0.81	34.4	0.5 µg/mL and 0.717 µM	21.75	21.1	20.35	54.5	Activity (Rattus norvegicus [13]): 0.57 mm; inhibition in vivo at 10 mg/kg (Rattus norvegicus [14]): 43%; inhibition in vivo at 10 mg/kg (Rattus norvegicus [15]): 42%
COc1cc(/C=C/C(=O)/C=C(O)/C=C/c2ccc(OC(=O)[C@@H](C)N)c(OC)c2)ccc1OC(=O)[C@@H](C)N.Cl.Cl	110	0.46	1 µg/mL and 1.71 µM	0.125 µg/mL and 0.214 µM	10.4	1.35	0.79	0.125 µg/mL and 0.214 µM	29	0.95	0.25 µg/mL and 0.428 µM	61	62	0.06	30.7	0.25 µg/mL and 0.428 µM	16.04	30.9	41.26	89.6	Activity (Mus musculus [16]): 13.8; Activity (Mus musculus [17]): 73.5%; Activity (Mus musculus [18]): 70.2%; Activity (Mus musculus [19]): 109.6%; Activity [20]: Non-Toxic; Activity (Mus musculus [21]): 127.1%; Time (Mus musculus [22]): 4.72 s; Time (Mus musculus [23]): 5.3 s; Activity (Mus musculus [24]): 67.5%; Activity (Mus musculus [25]): 5.6%; Activity [26]: 0; Time (Mus musculus [27]): 5.82 s; Activity [28]: 0; UI [29]: 0; Time (Mus musculus [30]): 4.02 s; Activity [31]: 0%; Activity (Mus musculus [32]): 53.4%; Activity (Rattus norvegicus [13]): 0.59 mm; inhibition in vivo at 10 mg/kg (Rattus norvegicus [14]): 74%; inhibition in vivo at 10 mg/kg (Rattus norvegicus [15]): 96%
COc1cc(/C=C/C(=O)/C=C(O)/C=C/c2ccc(OC(=O)CN)c(OC)c2)ccc1OC(=O)CN.Cl.Cl	101	0.46	1 µg/mL and 1.8 µM	1 µg/mL and 1.8 µM	9.15	0.99	0.69	0.5 µg/mL and 0.9 µM	42	0.82	0.25 µg/mL and 0.45 µM	66	67	0.17	38.7	0.25 µg/mL and 0.45 µM	13.66	18.9	49.98	122	Activity (Mus musculus [16]): 14.6; Activity (Mus musculus [17]): 34.6%; Activity (Mus musculus [18]): 25.1%; Activity (Mus musculus [19]): 106.5%; Activity [20]: Non-Toxic; Activity (Mus musculus [21]): 81.9%; Time (Mus musculus [22]): 3.66 s; Time (Mus musculus [23]): 5.04 s; Activity (Mus musculus [24]): 65.6%; Activity (Mus musculus [25]): 0.4%; Activity [26]: 0; Time (Mus musculus [27]): 4.28 s; Activity [28]: 0; UI [29]: 0; Time (Mus musculus [30]): 3.52 s; Activity [31]: 0%; Activity (Mus musculus [32]): 34.4%; Activity (Rattus norvegicus [13]): 0.48 mm; inhibition in vivo at 10 mg/kg (Rattus norvegicus [14]): 74%; inhibition in vivo at 10 mg/kg (Rattus norvegicus [15]): 88%
COc1cc(/C=C/C(=O)/C=C(O)/C=C/c2ccc(OC(=O)[C@@H](N)Cc3ccccc3)c(OC)c2)ccc1OC(=O)[C@@H](N)Cc1ccccc1.Cl.Cl	97	0.66	0.5 µg/mL and 0.68 µM	0.5 µg/mL and 0.68 µM	11.5	1.41	1.01	0.25 µg/mL and 0.34 µM	20	1.29	0.125 µg/mL and 0.17 µM	46	51	0.22	74.4	0.5 µg/mL and 0.68 µM	16.46	33.5	39.74	85.6	Activity (Rattus norvegicus [13]): 0.66 mm; inhibition in vivo at 10 mg/kg (Rattus norvegicus [14]): 63%; inhibition in vivo at 10 mg/kg (Rattus norvegicus [15]): 84%
